# Assay results taken from PMC10333884, “Large‐scale phosphomimetic screening identifies phospho‐modulated motif‐based protein interactions” (Molecular Systems Biology, 2023).
# Residues, ends and D or L forms follow the SMILES beside them.
# Experiments:
# GABARAPL2 [1] = target: T1, GABARAPL2 (Homo sapiens, UniProt P60520); experiment: Phosphomimetic ProP-PD selection, GABARAPL2; conditions: phosphomimetic enrichment score of the wild-type/phosphomimetic (E) pair at the phosphosite, PM_HD2 phage selection; positive = phosphomimetic enhances binding; P-value in brackets not taken
# T1 construct: GABARAPL2_ATG8__P60520_2_115; GST (cleaved yes); made in house; host or cells: Escherichia coli BL21-Gold(DE3)
# T1 sequence (P60520 2-115): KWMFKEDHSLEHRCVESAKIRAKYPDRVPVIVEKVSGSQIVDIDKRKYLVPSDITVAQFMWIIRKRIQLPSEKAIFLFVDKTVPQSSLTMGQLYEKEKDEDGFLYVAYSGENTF
# Procedure: (§1) Selections using the PM_HD2 phage library were performed as described previously with minor modification to the original protocol. The corresponding tag protein (either GST or MBP) was first used during negative selections. Selections were run for 4 days. • Bait and tag proteins (10–15 μg in 100 μl PBS) were immobilised in 96‐well MaxiSorb plate (NUNC) o.n. at 4°C. • Escherichia coli OmniMax bacteria were grown in 2YT medium supplemented with tetracycline (100 μg/ml) at 37°C and 200 rpm. • Plates with immobilised bait/tag proteins were blocked with 0.5% BSA in PBS for 1 h at 4°C. • Phage library (10 μl/well) was prepared by diluting 10× with PBS and adding one‐fourth of the volume of PEG/NaCl. For phage precipitation, prepared library was incubated for 10 min on ice followed by centrifugation for 10 min at 10,000 × g at 4°C. […]
# (§2) Based on the results from phage pool ELISAs, samples from selection Day 3 and 4 were selected for NGS, as described previously (Benz et al, [2022]). • Peptide coding regions were amplified and dual‐barcoded by PCR. […] From the columns, samples were eluted with 30 μl TE (10 mM Tris–HCl, 1 mM EDTA. pH 7.5) buffer and quantified with Quant‐iT PicoGreen dsDNA Assay Kit. • Samples were sequenced on MiSeq (MSC 2.5.0.5/RTA 1.18.54) with a 151 nt (Read1) setup using “Version3” chemistry. […]
# GABARAPL2 [2] = target: T1, GABARAPL2; experiment: FP displacement assay, GABARAPL2; format: binding; conditions: read-out: KD values ± SEM
# Procedure: (§3) FP experiments were performed as described previously (Kliche et al, [2021]). Shortly, in order to monitor the binding event, FITC‐labelled peptides were used (excitation 495 nm, emission: 535 nm) and the FP signal was recorded in mP on a SpectraMax iD5 Multi‐Mode Microplate Reader (Molecular Devices) by measuring the emitted light in two angels. The measurements were performed at room temperature and prepared in nonbinding black half area 96‐well microplates (Corning®; 50 μl/well). For measuring direct binding, that is saturation curves, a 1:1 dilution series of protein domain (25 μl/well) was generated in 50 mM sodium phosphate buffer pH 7.4 and the measurement performed with 5 nM FITC‐labelled peptide (25 μl/well). The buffer‐corrected values were subsequently plotted with PRISM and fitted to the quadratic equation (Gianni et al, [2005]).
# (§4) The 1:1 dilution series in this experiment was performed with the unlabelled peptide in 50 mM sodium phosphate buffer pH 7.4, so that each well‐contained unlabelled peptide (25 μl) at a certain concentration and pre‐formed complex (25 μl). The KD values of this indirectly monitored binding event were calculated as described previously (Nikolovska‐Coleska et al, [2004]). All measurements were at least in technical triplicates as well as biological duplicates when indicated. An amplitude shift between repeat measurements in the displacement experiments was occasionally observed due to variations in the protein preparations. If that was the case, the “active” protein concentration was back‐calculated according to the quadratic equation from the saturation curves performed in parallel. By comparing the active protein concentrations in the complex between different protein preparations, the amplitude was normalised.
# TSG101 UEV [3] = target: T2, TSG101 UEV (Homo sapiens, UniProt Q99816); experiment: FP displacement assay, TSG101 UEV; format: binding; conditions: for IC50: read-out: IC50 values of displacement curves, with SEM; for Kd: read-out: KD values ± SEM
# T2 construct: TSG101_UEV__Q99816_1_145; made in house; host or cells: Escherichia coli BL21-Gold(DE3)
# T2 sequence (Q99816 1-145): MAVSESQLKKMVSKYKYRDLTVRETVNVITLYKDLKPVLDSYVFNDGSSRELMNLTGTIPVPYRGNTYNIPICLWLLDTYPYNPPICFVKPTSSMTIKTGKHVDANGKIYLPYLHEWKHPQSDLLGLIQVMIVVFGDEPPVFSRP
# Procedure: as §3, §4
# TSG101 UEV [4] = target: T2, TSG101 UEV; experiment: Phosphomimetic ProP-PD selection, TSG101 UEV; conditions: phosphomimetic enrichment score of the wild-type/phosphomimetic (E) pair at the phosphosite, PM_HD2 phage selection; positive = phosphomimetic enhances binding; P-value in brackets not taken
# Procedure: as §1, §2
# MAP1LC3B [5] = target: T3, MAP1LC3B (Homo sapiens, UniProt Q9GZQ8); experiment: FP displacement assay, MAP1LC3B; format: binding; conditions: read-out: KD values ± SEM
# T3 construct: GST (cleaved yes); made in house; host or cells: Escherichia coli BL21-Gold(DE3)
# Procedure: as §3, §4
# MAP1LC3B [6] = target: T3, MAP1LC3B; experiment: Phosphomimetic ProP-PD selection, MAP1LC3B; conditions: phosphomimetic enrichment score of the wild-type/phosphomimetic (E) pair at the phosphosite, PM_HD2 phage selection; positive = phosphomimetic enhances binding; P-value in brackets not taken
# Procedure: as §1, §2
# MAP1LC3A [7] = target: T4, MAP1LC3A (Homo sapiens, UniProt Q9H492); experiment: Phosphomimetic ProP-PD selection, MAP1LC3A; conditions: phosphomimetic enrichment score of the wild-type/phosphomimetic (E) pair at the phosphosite, PM_HD2 phage selection; positive = phosphomimetic enhances binding; P-value in brackets not taken
# T4 construct: GST (cleaved yes); made in house; host or cells: Escherichia coli BL21-Gold(DE3)
# Procedure: as §1, §2
# MAP1LC3A [8] = target: T4, MAP1LC3A; experiment: FP displacement assay, MAP1LC3A; format: binding; conditions: for IC50: Fig 4B, MAP1LC3A ATG8, FP displacement, technical triplicates, read-out: IC50 values of displacement curves, with SEM; for Kd: read-out: KD values ± SEM
# [9] = Fig 4B, TSG101 UEV, technical triplicates
# [10] = probe FITC-HIV2_Gag 5 nM, 50 mM sodium phosphate pH 7.4, room temperature, at least three technical replicates
PES (TSG101 UEV [4]),Compound,PES (GABARAPL2 [1]),Kd (GABARAPL2 [2]) [µM],Kd (MAP1LC3B [5]) [µM],PES (MAP1LC3B [6]),PES (MAP1LC3A [7]),further results
−15 (0.00000004),"H3COC-QSIAREPS(pS/E)APSIPTPY-NH2 [PDCD6IP711–725 E, phosphomimetic (E) PDCD6IP 711-725 peptide]",–,–,–,–,–,"IC50 values of displacement curves, with SEM (TSG101 UEV [3]; [9]): n.b.; KD values ± SEM (TSG101 UEV [3]; [10]): n.b."
−14 (0.0000002),CC(=O)N[C@@H](Cc1c[nH]cn1)C(=O)N[C@@H](CO)C(=O)NCC(=O)N[C@@H](CC(N)=O)C(=O)N[C@H](C(=O)N[C@@H](CCC(=O)O)C(=O)N1CCC[C@H]1C(=O)N[C@H](C(=O)N[C@@H](C)C(=O)N1CCC[C@H]1C(=O)N1CCC[C@H]1C(=O)N[C@@H](Cc1ccc(O)cc1)C(=O)N[C@@H](CC(C)C)C(=O)N[C@@H](CCC(N)=O)C(=O)N[C@@H](CCC(=O)O)C(=O)N[C@@H](CO)C(N)=O)[C@@H](C)O)C(C)C [PIP4P2_17–32 E] (Ac-HSGNVEPTAPPYLQES-NH2),–,–,–,–,–,IC50 (TSG101 UEV [3]; [9]): 37 ± 8 µM; Kd (TSG101 UEV [3]; [10]): 18 ± 2 µM

# Continued, compound first:
Compound,PES (TSG101 UEV [4]),PES (GABARAPL2 [1]),Kd (GABARAPL2 [2]) [µM],Kd (MAP1LC3B [5]) [µM],PES (MAP1LC3B [6]),PES (MAP1LC3A [7]),further results
CC(=O)N[C@@H](C)C(=O)N[C@@H](CC(N)=O)C(=O)N[C@@H](CO)C(=O)N[C@@H](Cc1c[nH]c2ccccc12)C(=O)N[C@@H](CCC(N)=O)C(=O)N[C@@H](CC(C)C)C(=O)N[C@H](C(=O)N[C@@H](CCC(=O)O)C(=O)N[C@@H](CCC(=O)O)C(=O)N1CCC[C@H]1C(=O)N[C@@H](CCC(=O)O)C(=O)N[C@@H](CCCCN)C(=O)N[C@@H](CCCNC(=N)N)C(=O)N[C@@H](CCCCN)C(=O)N[C@@H](CCC(=O)O)C(=O)N[C@@H](CCC(=O)O)C(N)=O)C(C)C [DLGAP4_907–922 E] (Ac-ANSWQLVEEPEKRKEE-NH2),–,−3.9 (0.00047),260 ± 25,–,–,–,–
CSCC[C@H](NC(=O)[C@@H]1CCCN1C(=O)[C@H](CCC(=O)O)NC(=O)[C@H](CC(C)C)NC(=O)[C@@H]1CCCN1C(=O)[C@H](C)NC(=O)[C@@H](NC(=O)[C@@H]1CCCN1C(=O)[C@H](CO)NC(=O)[C@H](CO)NC(=O)[C@H](C)NC(=O)CNC(=O)[C@H](CC(N)=O)NC(=O)[C@H](Cc1ccc(O)cc1)NC(C)=O)[C@@H](C)O)C(=O)N[C@@H](CO)C(=O)N1CCC[C@H]1C(N)=O [GJA1_269–283 E] (Ac-YNGASSPTAPLEPMSP-NH2),6 (0.0013),–,–,–,–,–,IC50 (TSG101 UEV [3]; [9]): 232 ± 13 µM; Kd (TSG101 UEV [3]; [10]): 115 ± 4 µM
CC(=O)N[C@@H](CC(C)C)C(=O)N[C@@H](CCC(=O)O)C(=O)N[C@@H](CC(=O)O)C(=O)N[C@@H](CC(=O)O)C(=O)N[C@@H](CCC(=O)O)C(=O)N[C@@H](CCC(N)=O)C(=O)N[C@@H](Cc1ccccc1)C(=O)N[C@H](C(=O)N[C@@H](CCC(=O)O)C(=O)N[C@@H](CC(C)C)C(=O)N[C@@H](Cc1ccc(O)cc1)C(=O)NCC(=O)N[C@H](C(=O)N[C@@H](CCC(=O)O)C(=O)N[C@@H](CCC(=O)O)C(=O)N[C@@H](Cc1ccc(O)cc1)C(N)=O)[C@@H](C)O)C(C)C [TBK1_164–179 E],–,1 (0.11),12.4 ± 0.6,2.1 ± 0.2,5.1 (0.00047),3.2 (0.0061),–
CC(=O)N[C@@H](CCC(N)=O)C(=O)N[C@@H](CC(N)=O)C(=O)N[C@@H](CC(C)C)C(=O)N[C@@H](CO)C(=O)N[C@@H](CCCNC(=N)N)C(=O)N[C@@H](CCC(=O)O)C(=O)N[C@@H](Cc1c[nH]c2ccccc12)C(=O)N[C@@H](Cc1c[nH]cn1)C(=O)N[C@@H](CC(=O)O)C(=O)N[C@H](C(=O)N[C@@H](CCC(N)=O)C(=O)N[C@H](C(=O)N[C@@H](CO)C(=O)N[C@@H](CO)C(=O)N[C@@H](C)C(=O)N[C@@H](Cc1ccc(O)cc1)C(N)=O)C(C)C)C(C)C [TPD52L2_91–106 E] (Ac-QNLSREWHDVQVSSAY-NH2),–,–,–,225 ± 17,3 (0.012),14 (0.000000099),IC50 (MAP1LC3A [8]): 223 ± 12 µM; Kd (MAP1LC3A [8]): 78 ± 3 µM
CC(=O)N[C@@H](Cc1ccc(O)cc1)C(=O)N[C@@H](CCCCN)C(=O)N[C@@H](CCCCN)C(=O)N[C@@H](CCC(N)=O)C(=O)N[C@@H](CC(C)C)C(=O)N[C@@H](CCCCN)C(=O)N[C@@H](CCCNC(=N)N)C(=O)N[C@@H](Cc1ccccc1)C(=O)N[C@@H](CCC(=O)O)C(=O)N[C@H](C(=O)N[C@@H](CCC(=O)O)C(=O)N[C@@H](CCC(=O)O)C(=O)N[C@@H](Cc1ccccc1)C(=O)N[C@H](C(=O)N[C@@H](CC(C)C)C(=O)N[C@@H](CC(C)C)C(=O)O)C(C)C)[C@@H](C)O [ATG4C444–458 E] (Ac-YKKQLKRFETEEFVLL-OH),–,4.3 (0.0025),1.8 ± 0.2,4.6 ± 0.5,6 (0.00063),2.3 (0.015),IC50 (MAP1LC3A [8]): 11 ± 1 µM; Kd (MAP1LC3A [8]): 3.1 ± 0.2 µM
